Experiments:
rat IBAT = target: T1, rat IBAT (Rattus norvegicus, UniProt Q62633); assay: In vitro assay of temporarily expressed rat IBAT transporter using Cos 7 cells (Test Example 8); assay type: cell-based; conditions: Cos 7 cells temporarily expressing rat IBAT; [3H] taurocholate 8 μM, 37° C., 60 minutes
T1 construct: expressed in transfected cells; host or cells: Cos 7
T1 sequence (Q62633 1-348): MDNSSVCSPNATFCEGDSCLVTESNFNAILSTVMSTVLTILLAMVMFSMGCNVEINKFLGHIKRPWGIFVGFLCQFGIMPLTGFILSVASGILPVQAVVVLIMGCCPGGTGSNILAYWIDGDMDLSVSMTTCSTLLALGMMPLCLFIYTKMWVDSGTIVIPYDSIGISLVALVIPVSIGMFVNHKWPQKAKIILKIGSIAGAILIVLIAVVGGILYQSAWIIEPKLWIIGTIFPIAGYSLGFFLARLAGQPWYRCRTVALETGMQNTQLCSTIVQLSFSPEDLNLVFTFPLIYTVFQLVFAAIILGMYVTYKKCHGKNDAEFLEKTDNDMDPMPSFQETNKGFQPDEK
Description: In Vitro Assay of Compounds Which Inhibit Temporarily Expressed Human IBAT Transporter or Rat IBAT Transporter Using Cos 7 Cells
In this test example, the in vitro assay of the compounds which inhibit temporarily expressed human IBAT transporter or rat IBAT transporter using Cos cells was carried out according to the method described in Am. J. Physiol., 274, G157-169.
That is, […] Cos 7 were inoculated on a 24-well cell plate. One day later, 0.3 μg per well of cDNA of a human IBAT or a rat IBAT was transfected by using FuGENE6 (manufactured by ROCHE PHARMACEUTICAL CO., LTD.). For the assay, the cells cultured for one day after the transfection were used and the following procedure was followed. The cells were washed once with an assay buffer, Hank's buffer solution containing 25 mM glucose and with 10 mM HEPES (pH 7.4), and then the assay buffer was replaced by an assay buffer to which the test compound was added. After adding [^3H] taurocholate to a final concentration of 8 μM, the cells were incubated at 37° C. for 60 minutes. [^3H] taurocholate was allowed to be incorporated in Cos 7 cells through human IBAT or rat IBAT. The reaction was stopped by washing twice with a buffer prepared by adding 1 mM taurocholate to the assay buffer and lyzing the cells with 0.2M NaOH. Measurement of radioactivity was carried out by introducing the cell lyzate in 4 ml of liquid scintillation cocktail, stirring the mixture well, and then measuring the radioactivity by a scintillation counter.

[1] = test system: bile acid loaded rats without partial ligation surgery; assay: Cholestasis-caused hepatopathy model, bile acid loading without partial ligation, protocol B (Test Example 5); assay type: in vivo, rat; conditions: 0.1 mg/kg twice a day 3.5 days, distilled water, average ± standard error
Description: (§1) “Cholestasis-Caused Hepatopathy” Model (Bile Duct Partial Ligation Model)
(§2) The “cholestasis-caused hepatopathy” model by partial ligation surgery of bile duct in this test example was handled by referring to the method by Kanno et al. [Kanzo (Liver) 43 Suppl (1): A126, 2002].
(§3) That is, the abdomen of a 7 to 10 weeks old SD (IGS) male rat was cut open under anesthesia with pentobarbital and partial ligation surgery of the bile duct was carried out. A blood sample was taken from the femoral vein before the surgery and this was taken as pre-administration value. The test compound and 200 mg/kg of bile acid were forcibly orally administered twice a day for 3.5 days from the next day of the surgery (protocol A). The test compound and 200 mg/kg of bile acid were forcibly orally administered twice a day for 3.5 days without carrying out the partial ligation surgery (protocol B). In both the cases, the test compound was dissolved or suspended in distilled water or an aqueous solution of 1% HCO60 (manufactured by NIPPON CHEMICALS COMPANY, LTD.). […] Moreover, to consider the influence of the surgery, a pseudo operation group (a Sham group) was established as necessary. After 6 hours from the administration of the drug on the last day of the test, a blood sample was taken from the abdominal aorta and AST (GOT), ALT (GPT), and ALP in the blood were measured by using a measurement kit (GOTII-HA TEST WAKO, GPTII-HA TEST WAKO, and ALKALINE PHOSPHER-HA TEST WAKO respectively, all manufactured by WAKO PURE CHEMICAL […], LTD.) with an auto analyzer (NITTECH ANALYZER SUPER Z818).

human IBAT = target: T2, human IBAT (Homo sapiens, UniProt Q12908); assay: In vitro assay of temporarily expressed human IBAT transporter using Cos 7 cells (Test Example 8); assay type: cell-based; conditions: Cos 7 cells temporarily expressing human IBAT; [3H] taurocholate 8 μM, 37° C., 60 minutes
T2 construct: expressed in transfected cells; host or cells: Cos 7
T2 sequence (Q12908 1-348): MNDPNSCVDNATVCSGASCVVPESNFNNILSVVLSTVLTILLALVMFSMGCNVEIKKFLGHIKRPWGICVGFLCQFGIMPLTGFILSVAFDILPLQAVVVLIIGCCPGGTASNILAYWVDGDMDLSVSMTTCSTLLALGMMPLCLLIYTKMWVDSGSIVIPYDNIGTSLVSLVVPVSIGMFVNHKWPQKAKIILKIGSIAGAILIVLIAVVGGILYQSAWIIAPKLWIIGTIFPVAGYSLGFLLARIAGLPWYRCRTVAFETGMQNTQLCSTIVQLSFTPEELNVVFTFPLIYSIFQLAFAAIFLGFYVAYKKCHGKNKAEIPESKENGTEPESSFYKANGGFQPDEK
In short: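 Cos 7 cells transiently transfected with human or rat IBAT cDNA, assayed one day later in Hank's buffer with 25 mM glucose, 10 mM HEPES (pH 7.4) plus compound. Uptake of 8 μM [^3H]taurocholate over 60 min at 37 °C, stopped with 1 mM taurocholate washes; lysate radioactivity by scintillation counting.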

[2] = test system: bile duct partial ligation model; assay: Cholestasis-caused hepatopathy model, bile duct partial ligation, protocol A (Test Example 5); assay type: in vivo, rat; conditions: 1 mg/kg twice a day 3.5 days, 1% HCO60, average ± standard error; for ALT: controls 417 ± 185 / 384 ± 156; for AST: controls 589 ± 221 / 643 ± 125; for ALP: controls 2318 ± 583 / 2204 ± 327
Description: as §1, §2, §3

Compound | IC50 (human IBAT) [µM] | IC50 (rat IBAT) [µM] | ALT ([1]; control 82 ± 17) [IU/L] | AST ([1]; control 157 ± 35) [IU/L] | ALP ([1]; control 593 ± 77) [IU/L] | ALT [2] [IU/L] | AST [2] [IU/L] | ALP [2] [IU/L]
CCCCC1(CCCC)CS(=O)(=O)c2ccc(N(C)C)cc2C(c2cccc(NC(=S)CCCCC[N+]34CCC(CC3)CC4)c2)N1.[Br-] (centres unmarked) [Example 1, 1-{5-[3-(3,3-Dibutyl-7-dimethylamino-1,1-dioxo-2,3,4,5-tetrahydro-1,4-benzothiazepin-5-yl)phenylthiocarbamoyl]pentyl}-1-azoniabicyclo[2.2.2]octane bromide] | 0.025 | 0.007 | 53 ± 6 | 100 ± 2 | 453 ± 50 |  |  | 
C#CC[N+](C)(Cc1ccccc1)Cc1ccc(NC(=S)Nc2cccc(C3NC(CCCC)(CCCC)CS(=O)(=O)c4ccc(N(C)C)cc43)c2)cc1 (centres unmarked) [Example 3448] | 0.037 |  |  |  |  | 181 ± 79 | 352 ± 210 | 1148 ± 332
CCCCC1(CCCC)CS(=O)(=O)c2ccc(N(C)C)cc2C(c2cccc(NC(=S)Nc3ccc(C[N+]4(Cc5ccccc5)CCC(O)CC4)cc3)c2)N1.[Br-] (centres unmarked) [Example 3605] | 0.039 |  |  |  |  | 258 ± 219 | 487 ± 382 | 1489 ± 533
CCCCC1(CCCC)CS(=O)(=O)c2ccc(N(C)C)cc2C(c2cccc(NC(=S)Nc3ccc(C[N+]45CCC(c6ccccc6)(CC4)CC5)cc3)c2)N1.[Br-] (centres unmarked) [Example 3696] | 0.039 |  |  |  |  | 191 ± 21 | 325 ± 87 | 1209 ± 125

Second part, led by results:

IC50 (human IBAT) [µM] | Compound | IC50 (rat IBAT) [µM] | ALT ([1]; control 82 ± 17) [IU/L] | AST ([1]; control 157 ± 35) [IU/L] | ALP ([1]; control 593 ± 77) [IU/L] | ALT [2] [IU/L] | AST [2] [IU/L] | ALP [2] [IU/L]
0.037 | CCCCC1(CCCC)CS(=O)(=O)c2ccc(N(C)C)cc2C(c2cccc(NC(=S)Nc3ccc(C[N+](C)(C)Cc4ccccc4)cc3)c2)N1.[Br-] (centres unmarked) [Example 3440] | 0.01 |  |  |  | 155 ± 38 | 309 ± 37 | 1614 ± 189
0.037 | CCCCC1(CCCC)CS(=O)(=O)c2ccc(N(C)C)cc2C(c2cccc(NC(=S)Nc3ccc(C[n+]4ccc(C(C)(C)C)cc4)cc3)c2)N1.[Br-] (centres unmarked) [Example 3713] |  |  |  |  | 163 ± 96 | 280 ± 61 | 1008 ± 289
0.045 | CCCCC1(CCCC)CS(=O)(=O)c2ccc(N(C)C)cc2C(c2cccc(NC(=S)Nc3ccc(C[n+]4cccc(CCCO)c4)cc3)c2)N1.[Br-] (centres unmarked) [Example 3747] |  |  |  |  | 146 ± 70 | 245 ± 81 | 960 ± 259
0.041 | CCCCC1(CCCC)CS(=O)(=O)c2ccc(N(C)C)cc2C(c2cccc(NC(=S)Nc3ccc(C[n+]4cccc(CCC(=O)OC)c4)cc3)c2)N1.[Br-] (centres unmarked) [Example 3752] |  |  |  |  | 165 ± 47 | 358 ± 87 | 1112 ± 184
0.032 | CCCCC1(CCCC)CS(=O)(=O)c2ccc(N(C)C)cc2C(c2cccc(NC(=S)Nc3ccc(C[n+]4ccccc4CCC)cc3)c2)N1.[Br-] (centres unmarked) [Example 5408] |  |  |  |  | 197 ± 45 | 198 ± 65 | 1005 ± 102

Reference: patent US7803792B2, “Quaternary ammonium compounds” (Asahi Kasei Pharma Corporation, priority 2002, dated 2010)
